From PubChem BioAssay (NCI)
Several values for one entry are separate records, joined by “and”; a condition that tells them apart may be missing. Identical values can stand only once.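 Test compounds were applied to cells in 96-well plates for 48 hours at 5 doses. GI50 is the concentration that inhibits growth by half. TGI: total growth inhibition.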

Tests used:
Experiment in all cases: inhibition of tumour cell growth, NCI panel, 48 h
DMS 114 small cell lung = system: DMS 114 small cell lung
SNB-78 CNS = system: SNB-78 CNS
DMS 273 small cell lung = system: DMS 273 small cell lung
LXFL 529 NSCLC = system: LXFL 529 NSCLC
XF 498 CNS = system: XF 498 CNS
MDA-MB-231 breast = system: MDA-MB-231 breast
BT-549 breast = system: BT-549 breast
NCI/ADR-RES ovarian = system: NCI/ADR-RES ovarian
HS 578T breast = system: HS 578T breast
PC-3 prostate = system: PC-3 prostate

Row | SMILES | TGI (DMS 114 small cell lung) | TGI (SNB-78 CNS) | TGI (DMS 273 small cell lung) | TGI (LXFL 529 NSCLC) | TGI (XF 498 CNS) | also measured
1 | Cc1cccc(C)c1N1C(=O)C(=O)C(c2nc3ccccc3s2)/C(=N/NC(=O)c2ccccc2O)C1=O (centres undefined) | 60.9 µM | > 100 µM | 22.5 µM | > 100 µM | > 100 µM | –
2 | CCCCCCCCCCCCCCCCOP(=O)([O-])OCC[N+](C)(C)C | > 100 µM | > 100 µM | 25.8 µM | – | 60.9 µM | GI50 (MDA-MB-231 breast): 1.19 µM; GI50 (BT-549 breast): 1.63 µM; TGI (BT-549 breast): 5.87 µM and 17.8 µM; GI50 (NCI/ADR-RES ovarian): 11.1 µM; TGI (NCI/ADR-RES ovarian): 23.2 µM and 58.7 µM; GI50 (HS 578T breast): 4.21 µM; TGI (HS 578T breast): 18.9 µM and 40.7 µM; GI50 (PC-3 prostate): 0.277 µM; TGI (PC-3 prostate): 1.51 µM and 7.73 µM
3 | COC(=O)/C(C#N)=C(\N)C(Cl)(Cl)Cl | 11.1 µM | 31.3 µM | 12.4 µM | 9.73 µM | 4.36 µM | –
4 | N/N=C(\c1nc2ccc(Cl)cc2[nH]c1=O)C(O)c1ccc(Cl)c(Cl)c1 (centres undefined) | > 100 µM | > 100 µM | > 100 µM | > 100 µM | > 100 µM | –
5 | C=CCC1(C(=O)OC(C)(C)C)C(OC)=C(C(=O)OC(C)(C)C)C2C1C(C(=O)OC(C)(C)C)=C(OC)C2(CC=C)C(=O)OC(C)(C)C (centres undefined) | > 100 µM | – | – | – | > 100 µM | –
6 | CCCN(CCC)C(=O)c1nc(N)nc(-c2ccc(OC)cc2)c1-c1ccc(OC)cc1 | > 100 µM | > 100 µM | > 100 µM | > 100 µM | > 100 µM | –
7 | COC1CCC(OC)C(C2(C3CC(OC)CCC3OC)OC(=O)c3ccccc32)C1 (centres undefined) | > 100 µM | > 100 µM | > 100 µM | – | > 100 µM | –
8 | O=C1CNC(=O)c2[nH]cnc2N1 | > 100 µM | > 100 µM | > 100 µM | > 100 µM | > 100 µM | –
9 | CC(C(=O)c1ccccc1)C1(O)C(=O)Nc2ccc(Cl)cc21 (centres undefined) | > 100 µM | > 100 µM | – | > 100 µM | > 100 µM | –
10 | C#CC1(O)CCC2[C@@H]3CCc4cc(Oc5nc(F)nc(-c6c7ccccc7c(SCC)n6CCC)n5)ccc4C3CC[C@@]21C (some centres undefined) | > 100 µM | > 100 µM | > 100 µM | > 100 µM | > 100 µM | –
11 | CCOC(=O)C1=C(C)N(NC(N)=O)C2(N)N(NC(N)=O)C(C)=C(C(=O)OCC)C12C(=O)OCC (centres undefined) | > 100 µM | – | > 100 µM | > 100 µM | > 100 µM | –
12 | C1CN(P2(N3CC3)=NP(N3CC3)(N3CC3)=NP(N3CC3)(N3CC3)=N2)CCO1 (centres undefined) | > 100 µM | > 100 µM | > 100 µM | > 100 µM | > 100 µM | –
13 | CC1=NOC(=O)/C1=C/c1ccc([N+](=O)[O-])cc1 | > 100 µM | > 100 µM | > 100 µM | – | > 100 µM | –
14 | C/C(CC(=O)Nc1ccccc1C)=N/NS(=O)(=O)c1ccc(C)cc1 | – | > 100 µM | > 100 µM | > 100 µM | > 100 µM | –
15 | CO[C@H]1C[C@](C)(O)Cc2cc3c(c(O)c21)C(=O)c1c(O)cc2c(c1C3=O)O[C@@H]1O[C@@]2(C)[C@H](O)[C@@H](N(C)C)[C@@H]1O | 2.32 µM and 1.71 µM | 9.66 µM and 21.8 µM | 2.79 µM and 3.32 µM | 7.33 µM | 2.51 µM and 0.689 µM | TGI (MDA-MB-231 breast): 8 µM; GI50 (DMS 114 small cell lung): 0.533 µM; TGI (BT-549 breast): 7.3 µM; TGI (NCI/ADR-RES ovarian): 27.8 µM; TGI (HS 578T breast): 22.6 µM; GI50 (SNB-78 CNS): 5.05 µM; GI50 (DMS 273 small cell lung): 0.188 µM; GI50 (XF 498 CNS): 1.15 µM; TGI (PC-3 prostate): 15.9 µM
16 | Cc1c(N)nc(C(CC(N)=O)NCC(N)C(N)=O)nc1C(=O)NC(C(=O)NC(C)C(O)C(C)C(=O)NC(C(=O)NCCc1nc(-c2nc(C(=O)NCCCNC(C)c3ccccc3)cs2)cs1)C(C)O)C(OC1OC(CO)C(O)C(O)C1OC1OC(CO)C(O)C(OC(N)=O)C1O)c1cnc[nH]1 (centres undefined) | 8.75 µM | > 50 µM | 4.95 µM | 50 µM | 50 µM | GI50 (MDA-MB-231 breast): > 100 µM; TGI (MDA-MB-231 breast): > 100 µM; TGI (BT-549 breast): 50 µM; TGI (NCI/ADR-RES ovarian): 45.5 µM; TGI (HS 578T breast): 0.727 µM; GI50 (PC-3 prostate): 38.8 µM; TGI (PC-3 prostate): > 100 µM

Row | SMILES | TGI (DMS 114 small cell lung) | TGI (SNB-78 CNS) | TGI (DMS 273 small cell lung) | TGI (LXFL 529 NSCLC) | TGI (XF 498 CNS) | also measured
17 | CCCCCCCC/C=C1\CCC(CN2CCOCC2)C1=O (centres undefined) | 20.7 µM | 31.8 µM | – | 9.2 µM | 27.5 µM | TGI (MDA-MB-231 breast): 4.42 µM; TGI (BT-549 breast): 22.7 µM; TGI (NCI/ADR-RES ovarian): 14.4 µM; TGI (HS 578T breast): 50.6 µM; TGI (PC-3 prostate): 23.7 µM
18 | Cc1cc(C)c(C(=O)O)c(SSc2cc(C)cc(C)c2C(=O)O)c1 | > 100 µM | > 100 µM | > 100 µM | > 100 µM | > 100 µM | –
19 | CC(C)c1cccc(O)c(=O)c1 | 16 µM | > 100 µM | > 48.4 µM | > 100 µM | > 100 µM | GI50 (MDA-MB-231 breast): 6.73 µg/mL; TGI (MDA-MB-231 breast): > 75 µg/mL; GI50 (BT-549 breast): 3.57 µg/mL; TGI (BT-549 breast): 42.4 µg/mL; GI50 (NCI/ADR-RES ovarian): 4.5 µg/mL; TGI (NCI/ADR-RES ovarian): > 75 µg/mL; GI50 (HS 578T breast): 1.98 µg/mL; TGI (HS 578T breast): 38.6 µg/mL; GI50 (PC-3 prostate): 2.6 µg/mL; TGI (PC-3 prostate): > 75 µg/mL
20 | COc1cc(NS(C)(=O)=O)ccc1NCc1c2ccccc2nc2ccccc12 | 58.2 µM | – | > 100 µM | > 100 µM | 65.9 µM | –
21 | CCOC(=O)C12C(C(=O)OC)=C(C)N(NC(=O)Nc3ccccc3)C1(N)N(NC(=O)Nc1ccccc1)C(C)=C2C(=O)OC (centres undefined) | 83.6 µM | > 100 µM | > 72.2 µM | > 79.5 µM | 59.1 µM | –
22 | NCCNC(=O)c1cccc2cc3ccccc3nc12 | 6.66 µM | 37 µM | > 100 µM | > 36.6 µM | 6.04 µM | –
23 | COc1ccc2oc(-c3ccc(OC)c(OC)c3OC)cc(=O)c2c1 | > 100 µM | – | – | > 100 µM | > 100 µM | –
24 | Cc1nc(N)nc(N)c1CCCc1ccccc1 | > 100 µM | > 100 µM | – | > 100 µM | > 100 µM | –
25 | CCC1(OC(=O)CN)C(=O)OCc2c1cc1n(c2=O)Cc2cc3ccccc3nc2-1 (centres undefined) | 0.461 µM and 1.02 µM | > 100 µM | – | 6.06 µM | 0.431 µM | GI50 (MDA-MB-231 breast): 0.652 µM; TGI (MDA-MB-231 breast): 6.04 µM; GI50 (BT-549 breast): 0.459 µM; GI50 (NCI/ADR-RES ovarian): 0.0173 µM; TGI (NCI/ADR-RES ovarian): 0.137 µM and 0.0776 µM; TGI (HS 578T breast): > 90.7 µM; GI50 (SNB-78 CNS): 0.53 µM; GI50 (LXFL 529 NSCLC): 0.135 µM; GI50 (XF 498 CNS): 0.0328 µM; GI50 (PC-3 prostate): 0.172 µM; TGI (PC-3 prostate): > 100 µM
26 | N#CC(C#N)=Cc1ccc(CP(=O)(O)O)cc1 | > 100 µM | > 100 µM | > 100 µM | > 100 µM | > 100 µM | –
27 | CCCCc1c2cnccc2c(CCCC)c2c1[nH]c1ccccc12 | 18.3 µM | 77.8 µM | 27.9 µM | 25.6 µM | 13.3 µM | –
28 | CC1CC(C)C2OC2(C)C[C@H](C)C(=O)NC(C)C(=O)N(C)[C@H](Cc2c(Br)[nH]c3ccccc23)C(=O)N[C@@H](c2ccc(O)cc2)CC(=O)O1 (some centres undefined) | 2.63 µM | 0.763 µM | 83.1 µM | 13.3 µM | 4.31 µM | –
29 | COc1cc2c(cc1OC)C1Cc3ccc(OC)c(OC)c3C[N+]1([O-])CC2 (centres undefined) | – | > 100 µM | – | > 100 µM | > 100 µM | –
30 | COc1ccc2c(c1)NC1(O)c3ccccc3C(=O)C21O (centres undefined) | > 100 µM | > 100 µM | > 100 µM | > 100 µM | > 100 µM | –
31 | CC(C)(C)N/N=C(\C(=O)Nc1nc(=S)[nH][nH]1)C1C(=O)Nc2ccccc2S1=O (centres undefined) | > 100 µM | > 100 µM | > 100 µM | > 100 µM | > 100 µM | –
